Experimental data published in patent publication US20240360165A1, “INHIBITORS OF CYCLIN DEPENDENT KINASE 7 (CDK7)” (Syros Pharmaceuticals, Inc., priority 2016, published 2024).
Where two headings read alike, the source gives them in different places.

Legend:
[1] = target: CDK7/Cyclin H/MAT1 complex (Homo sapiens, UniProt P50613); assay: CDK7 inhibition assay (Caliper/LabChip EZ Reader kinase assay); type: biochemical; settings: Table 1; CDK7/Cyclin H/MAT1 6 nM, ATP 2 mM, 35 min at 27° C.
Outline: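 A Perkin Elmer Caliper/LabChip EZ Reader (Waltham, MA) platform served as the basis for this CDK7 kinase inhibition assay. The work was carried out by Biortus Biosciences, located in Jiangyin, Jiangsu Province, P.R. of China. Each CDK studied had its own kinase assay, and compounds were evaluated for their ability to block CDK7 activity.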

HCC70 cells = assay: Inhibition of proliferation of HCC70 cells (CyQUANT Direct Cell Proliferation Assay, 72 hour); type: cell-based, human; settings: read-out: Inhibition of Proliferation of HCC70 Cells (calculated IC50)
Experimental: HCC70 cells are a cell line derived from human triple negative breast cancer. […] Known CDK inhibitors dinaciclib or N-((1S,3R)-3-((5-chloro-4-(1H-indol-3-yl) pyrimidin-2-yl)amino)cyclohexyl)-5-((E)-4-(dimethylamino)but-2-enamido)picolinamide and triptolide were used as positive controls. […] The cells were cultured at 37° C. in a humidified chamber in the presence of 5% CO2. Proliferation assays were conducted over a 72 hour time period. CyQUANT® Direct Cell Proliferation Assay (Life Technologies, Chicago, IL USA) was used to assess the anti-proliferative effects of the compounds following manufacturer's directions and utilizing the reagents supplied with the CyQUANT® Direct Cell kit.

[2] = target: T1, CDK12 (aa686-1082)/Cyclin K complex (Homo sapiens, UniProt Q9NYV4); assay: CDK12 inhibition assay (Caliper/LabChip EZ Reader kinase assay); type: biochemical; settings: Table 1; CDK12 (aa686-1082)/Cyclin K 50 nM, ATP 2 mM, 3 hr at 27° C.
T1 construct: CDK12 (aa686-1082)/Cyclin K complex

A673 cells = assay: Inhibition of proliferation of A673 cells (CyQUANT, 72 hour); type: cell-based, human; settings: A673 cells, 72 hour, CyQUANT, read-out: Inhibition of Proliferation of A673 Cells (calculated IC50)
Outline: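 Human Ewing's sarcoma A673 cells in DMEM with 10% FBS and 1 mM sodium pyruvate, 37° C, 5% CO2, treated 72 h with compound from 4 μM to […] (0.5 log dilutions). Antiproliferative effect read by CyQUANT assay.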

CDK9/Cyclin T1 complex = CDK9/Cyclin T1 complex (Homo sapiens, UniProt P50750); assay: CDK9 inhibition assay (Caliper/LabChip EZ Reader kinase assay); type: biochemical; settings: Table 1; CDK9/Cyclin T1 8 nM, ATP 2 mM, 15 min at 27° C.
Outline: (§1)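 Caliper/LabChip EZ Reader mobility-shift assays. CDK9/Cyclin T1 at 8 nM with 2 μM 5-FAM-CDK9tide peptide and 10 mM MgCl2; CDK2/Cyclin E1 at 0.5 nM with 2 μM 5-FAM-CDK7tide and 2 mM MgCl2.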

CDK2/Cyclin E1 complex = CDK2/Cyclin E1 complex (Homo sapiens, UniProt P24941); assay: CDK2 inhibition assay (Caliper/LabChip EZ Reader kinase assay); type: biochemical; settings: Table 1; CDK2/Cyclin E1 0.5 nM, ATP 2 mM, 35 min at 27° C.
Outline: as §1

Sequence of CDK9/Cyclin T1 complex (P50750 whole entry, species assumed): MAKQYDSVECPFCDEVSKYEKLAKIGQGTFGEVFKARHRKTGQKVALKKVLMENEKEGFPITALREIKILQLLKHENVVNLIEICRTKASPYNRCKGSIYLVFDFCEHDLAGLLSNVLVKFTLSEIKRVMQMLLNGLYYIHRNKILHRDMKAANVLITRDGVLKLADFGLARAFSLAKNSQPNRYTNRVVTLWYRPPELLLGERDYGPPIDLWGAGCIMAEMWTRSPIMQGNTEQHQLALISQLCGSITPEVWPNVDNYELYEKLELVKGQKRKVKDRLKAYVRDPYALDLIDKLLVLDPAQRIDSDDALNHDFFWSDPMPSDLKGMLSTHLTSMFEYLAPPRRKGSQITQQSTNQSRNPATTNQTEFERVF
Sequence of CDK9/Cyclin T1 complex (O60563 whole entry partner, species assumed): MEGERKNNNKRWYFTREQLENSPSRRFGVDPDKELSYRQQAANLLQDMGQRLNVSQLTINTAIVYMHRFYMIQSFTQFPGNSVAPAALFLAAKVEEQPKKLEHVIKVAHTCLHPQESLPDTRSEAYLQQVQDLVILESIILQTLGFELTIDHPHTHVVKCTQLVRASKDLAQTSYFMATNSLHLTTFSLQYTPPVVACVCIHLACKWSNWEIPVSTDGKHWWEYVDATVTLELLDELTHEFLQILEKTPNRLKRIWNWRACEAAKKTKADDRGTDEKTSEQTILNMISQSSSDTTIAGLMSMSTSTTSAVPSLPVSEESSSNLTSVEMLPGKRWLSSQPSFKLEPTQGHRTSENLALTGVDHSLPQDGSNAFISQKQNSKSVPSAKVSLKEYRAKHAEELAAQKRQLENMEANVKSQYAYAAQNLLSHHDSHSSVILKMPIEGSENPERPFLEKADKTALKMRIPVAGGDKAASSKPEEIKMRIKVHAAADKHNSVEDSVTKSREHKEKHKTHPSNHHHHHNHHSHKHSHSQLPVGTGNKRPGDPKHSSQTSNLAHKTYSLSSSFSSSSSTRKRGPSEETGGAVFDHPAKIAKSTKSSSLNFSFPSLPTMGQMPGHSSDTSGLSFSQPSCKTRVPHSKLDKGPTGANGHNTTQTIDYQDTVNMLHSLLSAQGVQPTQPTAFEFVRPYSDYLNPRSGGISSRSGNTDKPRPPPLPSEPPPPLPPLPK
Sequence of CDK7/Cyclin H/MAT1 complex (P50613 whole entry, species assumed): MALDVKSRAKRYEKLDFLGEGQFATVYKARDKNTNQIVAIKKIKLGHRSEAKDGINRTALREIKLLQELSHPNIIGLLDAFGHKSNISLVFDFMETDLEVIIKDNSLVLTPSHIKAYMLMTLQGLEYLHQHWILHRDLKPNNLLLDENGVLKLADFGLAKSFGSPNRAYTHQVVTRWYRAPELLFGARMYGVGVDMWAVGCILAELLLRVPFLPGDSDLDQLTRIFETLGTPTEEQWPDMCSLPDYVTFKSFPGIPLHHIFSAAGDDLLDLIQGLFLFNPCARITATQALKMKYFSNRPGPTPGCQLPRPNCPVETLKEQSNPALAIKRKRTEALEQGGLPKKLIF
Sequence of CDK7/Cyclin H/MAT1 complex (P51946 whole entry partner, species assumed): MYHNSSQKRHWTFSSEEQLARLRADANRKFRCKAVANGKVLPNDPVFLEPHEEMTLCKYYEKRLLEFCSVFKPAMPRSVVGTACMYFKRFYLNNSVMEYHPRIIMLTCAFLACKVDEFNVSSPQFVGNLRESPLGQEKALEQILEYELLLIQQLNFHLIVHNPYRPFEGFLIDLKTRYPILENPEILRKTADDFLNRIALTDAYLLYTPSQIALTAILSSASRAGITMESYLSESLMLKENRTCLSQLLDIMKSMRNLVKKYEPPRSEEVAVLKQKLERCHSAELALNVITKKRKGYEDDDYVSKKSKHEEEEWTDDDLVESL
Sequence of CDK7/Cyclin H/MAT1 complex (P51948 whole entry partner, species assumed): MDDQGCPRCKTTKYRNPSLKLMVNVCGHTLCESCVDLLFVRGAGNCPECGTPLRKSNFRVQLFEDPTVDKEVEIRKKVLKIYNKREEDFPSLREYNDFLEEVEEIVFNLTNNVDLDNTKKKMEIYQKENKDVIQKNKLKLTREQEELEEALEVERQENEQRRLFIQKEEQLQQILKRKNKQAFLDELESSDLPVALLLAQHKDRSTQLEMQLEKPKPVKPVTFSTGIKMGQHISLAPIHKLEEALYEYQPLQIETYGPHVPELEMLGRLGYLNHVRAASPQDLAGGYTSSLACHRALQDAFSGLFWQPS
T1 sequence (Q9NYV4 686-1082, species assumed): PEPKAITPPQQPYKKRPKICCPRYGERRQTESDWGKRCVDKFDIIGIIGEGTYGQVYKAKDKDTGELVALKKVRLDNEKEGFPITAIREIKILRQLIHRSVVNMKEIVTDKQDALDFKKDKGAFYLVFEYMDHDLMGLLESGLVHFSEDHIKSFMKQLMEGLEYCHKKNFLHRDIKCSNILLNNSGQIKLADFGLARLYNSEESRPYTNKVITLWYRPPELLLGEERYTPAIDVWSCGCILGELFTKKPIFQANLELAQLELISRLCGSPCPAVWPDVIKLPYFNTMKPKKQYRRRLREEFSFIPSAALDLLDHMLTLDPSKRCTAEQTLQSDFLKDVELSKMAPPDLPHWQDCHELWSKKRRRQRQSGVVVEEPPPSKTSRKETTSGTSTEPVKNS
T1 sequence (O75909 whole entry partner, species assumed, the tested form may be a part): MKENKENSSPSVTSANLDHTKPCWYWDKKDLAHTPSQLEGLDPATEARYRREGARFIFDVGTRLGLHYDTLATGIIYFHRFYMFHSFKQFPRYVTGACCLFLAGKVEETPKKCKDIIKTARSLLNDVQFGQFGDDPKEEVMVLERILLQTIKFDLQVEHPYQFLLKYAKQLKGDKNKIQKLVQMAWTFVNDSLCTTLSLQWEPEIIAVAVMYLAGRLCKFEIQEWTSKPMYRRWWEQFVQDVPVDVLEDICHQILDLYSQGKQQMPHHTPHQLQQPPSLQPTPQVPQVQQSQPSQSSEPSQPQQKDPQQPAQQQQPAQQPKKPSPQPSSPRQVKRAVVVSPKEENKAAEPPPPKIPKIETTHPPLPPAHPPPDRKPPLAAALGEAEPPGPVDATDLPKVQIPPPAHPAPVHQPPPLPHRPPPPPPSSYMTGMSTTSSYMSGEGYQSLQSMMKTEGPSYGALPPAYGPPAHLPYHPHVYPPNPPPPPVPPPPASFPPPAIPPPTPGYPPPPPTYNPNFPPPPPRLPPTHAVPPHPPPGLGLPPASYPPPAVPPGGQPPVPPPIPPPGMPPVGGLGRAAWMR

SMILES	IC50 [1] [nM]	IC50 [2] [nM]	IC50 (CDK9/Cyclin T1 complex) [nM]	IC50 (CDK2/Cyclin E1 complex) [nM]	IC50 (HCC70 cells; Homo sapiens, HCC70, 72 h) [nM]	IC50 (HCC70 cells) [nM]	IC50 (A673 cells; Homo sapiens, A673, 72 h) [nM]	IC50 (A673 cells) [nM]	IC50 (A673 cells; Homo sapiens) [nM]
FC(F)(F)c1cnc(NC2CCCNC2)nc1-c1c[nH]c2cc(C=Cc3ccccc3)ccc12 (stereo not shown) [Compound 317]	20 to 200	200 to 5000			1000 to 5000				
FC(F)(F)c1cnc(NC2C3CCC2NC3)nc1-c1c[nH]c2ccccc12 (stereo not shown) [Compound 222, N-[4-(1H-indol-3-yl)-5-(trifluoromethyl)pyrimidin-2-yl]-3-azabicyclo [2.2.1]heptan-7-amine]	20 to 200	200 to 5000	200 to 5000	200 to 5000			20 to 200		
CCc1cnc(N[C@H]2CCCNC2)nc1-c1c[nH]c2cc(S(C)(=O)=O)ccc12 [Compound 271]	20 to 200	> 5000	> 5000	> 5000			200 to 5000		
CCCCCC1CC[C@H](Nc2ncc(C(F)(F)F)c(-c3c[nH]c4ccccc34)n2)CN1 (mixture of isomers) [Compound 241]	20 to 200	200 to 5000	200 to 5000	200 to 5000			20 to 200		
C=Cc1cnc(N[C@H]2CCCNC2)nc1-c1c[nH]c2ccccc12 [Compound 218]	< 20	200 to 5000	200 to 5000	200 to 5000			20 to 200		
CCc1cnc(-c2c[nH]c3ncc(F)cc23)nc1N[C@H]1CCCNC1 [Compound 231, 5-ethyl-2-(5-fluoro-1H-pyrrolo [2,3-b]pyridin-3-yl)-N-[(3S)-3-piperidyl] pyrimidin-4-amine]	> 5000	> 5000	> 5000	> 5000			200 to 5000		
O=C(c1ccc2c(-c3nc(N[C@H]4CCCNC4)ncc3C(F)(F)F)c[nH]c2c1)N1CC[C@@H](O)C1 [Compound 205, [(3R)-3-hydroxypyrrolidin-1-yl]-[3-[2-[[(3S)-3-piperidyl]amino]-5-(trifluoromethyl)pyrimidin-4-yl]-1H-indol-6-yl]methanone]	< 20	200 to 5000	> 5000	> 5000			200 to 5000		
c1ccc2c(-c3nc(N[C@H]4CCCNC4)ncc3C3CC3)c[nH]c2c1 [Compound 135]	20 to 200	> 5000	> 5000	> 5000			200 to 5000		
O=C(C1CCC(Nc2ncc(C(F)(F)F)c(-c3c[nH]c4ccccc34)n2)CN1)N1CCC(O)C1 (mixture of isomers) [Compound 244]	20 to 200	200 to 5000	> 5000	200 to 5000			200 to 5000		
Fc1cc2[nH]cc(-c3nc(N[C@H]4CCCNC4)ncc3C(F)(F)F)c2cc1F [Compound 184]	< 20	20 to 200	20 to 200	20 to 200				< 20	
FC(F)(F)c1cnc(N[C@@H]2CNC[C@H](c3nnc4ccccn34)C2)nc1-c1c[nH]c2ccccc12 (relative stereo) [Compound 266]	20 to 200	200 to 5000	200 to 5000	200 to 5000				20 to 200	
CCOP(C)(=O)c1cccc2c(-c3nc(N[C@H]4CCCNC4)ncc3C(F)(F)F)c[nH]c12 (stereo partly shown) [Compound 179]	< 20	200 to 5000	200 to 5000	200 to 5000					< 20
C[C@H]1CNC[C@@H](Nc2ncc(Cl)c(-c3c[nH]c4ccccc34)n2)C1 [Compound 201, 5-chloro-4-(1H-indol-3-yl)-N-[(3S,5R)-5-methyl-3-piperidyl]pyrimidin-2-amine]	< 20	20 to 200	200 to 5000	200 to 5000			< 20		
CS(=O)(=O)c1cccn2c([C@H]3CCC[C@@H](Nc4ncc(C(F)(F)F)c(-c5c[nH]c6ccccc56)n4)C3)nnc12 [Compound 265, 4-(1H-indol-3-yl)-N-[(1R,3S)-3-(8-methylsulfonyl-[1,2,4]triazolo [4,3-a]pyridin-3-yl)cyclohexyl]-5-(trifluoromethyl) pyrimidin-2-amin]	200 to 5000	200 to 5000	200 to 5000	200 to 5000			20 to 200		
CC(C)CN1CCC[C@H](Nc2ncc(Cl)c(-c3c[nH]c4ccccc34)n2)C1 [Compound 145]	20 to 200	200 to 5000	> 5000	> 5000			200 to 5000		

Now from value to compound, other results behind:

IC50 [1] [nM]	IC50 [2] [nM]	IC50 (CDK9/Cyclin T1 complex) [nM]	IC50 (CDK2/Cyclin E1 complex) [nM]	SMILES	IC50 (HCC70 cells; Homo sapiens, HCC70, 72 h) [nM]	IC50 (HCC70 cells) [nM]	IC50 (A673 cells; Homo sapiens, A673, 72 h) [nM]	IC50 (A673 cells) [nM]	IC50 (A673 cells; Homo sapiens) [nM]
20 to 200	200 to 5000			FC(F)(F)c1cnc(N[C@H]2CCCNC2)nc1-c1c[nH]c2cc(-c3ccc4cn[nH]c4c3)ccc12 [Compound 329]	100 to 1000				
20 to 200	200 to 5000			Nc1nc2c(-c3ccc4c(-c5nc(N[C@H]6CCCNC6)ncc5C(F)(F)F)c[nH]c4c3)cccc2s1 [Compound 312]	100 to 1000				
20 to 200	200 to 5000			OCCc1cccc(-c2ccc3c(-c4nc(N[C@H]5CCCNC5)ncc4C(F)(F)F)c[nH]c3c2)c1 [Compound 324]		100 to 1000			
20 to 200	200 to 5000			FC(F)(F)c1cc2[nH]cc(-c3ccc4c(-c5nc(N[C@H]6CCCNC6)ncc5C(F)(F)F)c[nH]c4c3)c2cn1 [Compound 319]		1000 to 5000			
20 to 200	200 to 5000			CCOc1ccccc1-c1ccc2c(-c3nc(NC4CCCNC4)ncc3C(F)(F)F)c[nH]c2c1 (stereo not shown) [Compound 327]	100 to 1000				
20 to 200	200 to 5000			FC(F)(F)c1cnc(N[C@H]2CCCNC2)nc1-c1c[nH]c2cc(-c3ccc4ccncc4c3)ccc12 [Compound 325]		100 to 1000			
< 20	200 to 5000			Nc1ncc2cccc(-c3ccc4c(-c5nc(N[C@H]6CCCNC6)ncc5C(F)(F)F)c[nH]c4c3)c2n1 [Compound 322]		100 to 1000			
< 20	200 to 5000	200 to 5000	200 to 5000	Cc1nc(-c2ccc3c(-c4nc(N[C@H]5CCCNC5)ncc4C(F)(F)F)c[nH]c3c2)n[nH]1 [Compound 235]			200 to 5000		
< 20	200 to 5000	200 to 5000	200 to 5000	N#Cc1cc(-c2ccc3c(-c4nc(N[C@H]5CCCNC5)ncc4C(F)(F)F)c[nH]c3c2)c[nH]1 [Compound 233, 4-[3-[2-[[(3S)-3-piperidyl]amino]-5-(trifluoromethyl)pyrimidin-4-yl]-1H-indol-6-yl]-1H-pyrrole-2-carbonitrile]			20 to 200		
20 to 200	200 to 5000			NS(=O)(=O)c1cccc(-c2ccc3c(-c4nc(N[C@H]5CCCNC5)ncc4C(F)(F)F)c[nH]c3c2)c1 [Compound 326]		100 to 1000			
20 to 200	200 to 5000			N#Cc1cc(-c2ccc3c(-c4nc(N[C@H]5CCCNC5)ncc4C(F)(F)F)c[nH]c3c2)ccc1O [Compound 315]		1000 to 5000			
20 to 200	200 to 5000			NS(=O)(=O)c1ccc(-c2ccc3c(-c4nc(N[C@H]5CCCNC5)ncc4C(F)(F)F)c[nH]c3c2)cc1 [Compound 331]		100 to 1000			
20 to 200	200 to 5000	200 to 5000	> 5000	FC(F)(F)c1cnc(N[C@H]2CCCNC2)nc1-c1c[nH]c2cc(-c3cc[nH]n3)ccc12 [Compound 291, N-[(3S)-3-piperidyl]-4-[6-(1H-pyrazol-3-yl)-1H-indol-3-yl]-5-(trifluoromethyl) pyrimidin-2-amine]				20 to 200	
